Assay results: US20050282888A1, “Fungicidal composition” (Sumitomo Chemical Company, Limited, priority 2004, published 2005)

system: Plasmopara viticola; assay: Test Example 1: spray test on grape seedlings inoculated with Plasmopara viticola (protective value); format: in vivo, Plasmopara viticola on grape (variety: Berry A); details: Plasmopara viticola, 168 h, single active ingredient, wettable powder sprayed on grape seedlings before inoculation, assessed after one night plus 7 days, read-out: Actual protective value
Description: Next, it is shown that the present invention compositions have an excellent controlling activity against plant diseases as test example. Generally, an expected controlling value, when two active ingredient compounds are mixed and applied, can be calculated by the Colby's formula described below. E=X+Y−(X×Y)/100 • X: protective value (%) when treatment is carried out by using an active ingredient compound A at the concentration of m ppm. • Y: protective value (%) when treatment is carried out by using an active ingredient compound B at the concentration of n ppm • E: protective value (%) when treatment is carried out by using the active ingredient compound A at the concentration of m ppm and the active ingredient compound B at the concentration of n ppm (hereinafter referred to as “expected protective value”) And, generally speaking, if actual protective value (%) when treatment is carried out by actually mixing two kinds of active ingredient compounds is not less than the expected protective value (%), it can be said that there is a mixing effect.
Sandy loam soil was compacted in a plastic pot, and a grape (variety: Berry A) was seeded and grown in a green house for 40 days. The test drug formulated to wettable powder according to Formulation Example 5, then, diluted with water to provide prescribed concentration, and these diluted solutions were sprayed onto stems and leaves so as to give sufficient adhesion on the surface of grape leaves. After that, a suspension of zoosporangia of Plasmopara viticola was inoculated by spraying to stems and leaves of the grape seedling. After inoculation, the grape seedling was first grown for one night at 23° C. under humid, then further grown for 7 days in the green house. Then, the ratio of diseased area (%) of Plasmopara viticola on stems and leaves of the grape seedling was investigated and the actual protective value was obtained according to the formula described below form the investigated result. protective value (%)={[the ratio of diseased area of non treated plant (%)−the ratio of diseased area of treated plant (%)/]/[the ratio of diseased area of non treated plant (%)]}×100

| SMILES | pest or weed control at 50 ppm |
| --- | --- |
| C#CCOc1ccc(CCC(=S)NCc2ccc(C)cc2)cc1OC [(I-3), N-(4-methylbenzyl)-3-(3-methoxy-4-(2-propynyloxy)phenyl}pro panthioamide] | 100% |
| C#CCOc1ccc(CCC(=O)NC(C#N)c2ccc(CC)cc2)cc1OC (stereo not drawn) [(I-9), N-{1-(4-ethylphenyl)-1-cyanomethyl)-3-(3-methoxy-4-(2-propynyloxy)phenyl)propanamide] | 100% |
| C#CCOc1ccc(CCC(=O)NC(C#N)c2ccc3c(c2)CCC3)cc1OC (stereo not drawn) [(I-24), N-{1-(indan-5-yl)-1-cyanomethyl}-3-{3-methoxy-4-(2-propynyloxy)phenyl}propanamide] | 100% |
| COc1ccc(C(=CC(=O)N2CCOCC2)c2ccc(Cl)cc2)cc1OC [dimethomorph, 4-[3-(4-chlorophenyl)-3-(3,4-dimethoxyphenyl)acryloyl]morph oline, reference compound] | 100% |
| C#CCOc1ccc(CCC(=O)NCc2ccc3c(c2)CCC3)cc1OC [(I-22), N-{(indan-5-yl)methyl}-3-{3-methoxy-4-(2-propynyloxy)phenyl}propanamide] | 100% |
| C#CCOc1ccc(CCC(=O)NCc2ccc(Cl)cc2)cc1OC [(I-10), N-(4-chlorobenzyl)-3-(3-methoxy-4-(2-propynyloxy)phenyl}pro panamide] | 100% |
| C#CCOc1ccc(CCC(=O)NC(C#N)c2ccccc2)cc1OC (stereo not drawn) [(I-5), N-(1-phenyl-1-cyanomethyl)-3-{3-methoxy-4-(2-propynyloxy)phenyl}propanamide] | 100% |
| C#CCOc1ccc(CCC(=S)NCc2ccc(Cl)c(Cl)c2)cc1OC [(I-14), N-(3,4-dichlorobenzyl)-3-{3-methoxy-4-(2-propynyloxy)phenyl}propanthioamide] | 100% |
| C#CCOc1ccc(CCC(=S)NCc2ccc(C)c(C)c2)cc1OC [(I-4), N-(3,4-dimethylbenzyl)-3-{3-methoxy-4-(2-propynyloxy)phenyl}propanthioamide] | 100% |
| C#CCOc1ccc(CCC(=O)NC(C#N)c2ccc(C)cc2)cc1OC (stereo not drawn) [(I-6), N-{1-(4-methylphenyl)-1-cyanomethyl)-3-(3-methoxy-4-(2-propynyloxy)phenyl}propanamide] | 100% |
| C#CCOc1ccc(CCC(=S)NCc2ccc(Cl)cc2)cc1OCC [(I-15), N-(4-chlorobenzyl)-3-(3-ethoxy-4-(2-propynyloxy)phenyl)prop anthioamide] | 100% |
| C#CCOc1ccc(CCC(=S)NCc2ccc3c(c2)CCCC3)cc1OC [(I-26), N-(5,6,7,8-tetrahydronaphthalene-2-ylmethyl)-3-(3-methoxy-4-(2-propynyloxy)phenyl}propanthioamide] | 100% |
| C#CCOc1ccc(CCC(=O)NCc2ccc3ccccc3c2)cc1OC [(I-28), N-{(naphthalene-2-yl)methyl}-3-{3-methoxy-4-(2-propynyloxy)phenyl}propanamide] | 100% |
| C#CCOc1ccc(CCC(=S)NCc2ccc(Br)cc2)cc1OC [(I-19), N-(4-bromobenzyl)-3-{3-methoxy-4-(2-propynyloxy)phenyl)prop anthioamide] | 100% |
| C#CCOc1ccc(CCC(=S)NCc2ccc(Cl)cc2)cc1OC [(I-13), N-(4-chlorobenzyl)-3-(3-methoxy-4-(2-propynyloxy)phenyl}pro panthioamide] | 100% |
| C#CCOc1ccc(CCC(=O)NCc2ccc(C)cc2)cc1OC [(I-1), N-(4-methylbenzyl)-3-{3-methoxy-4-(2-propynyloxy)phenyl}pro panamide] | 100% |
| CCOc1ccc(CCC(=O)NC(C#N)c2ccc(Cl)cc2)cc1OC (stereo not drawn) [(I-17), N-{1-(4-chlorophenyl)-1-cyanomethyl)-3-(3-methoxy-4-ethoxyphenyl)propanamide] | 100% |
| C#CCOc1ccc(CCC(=O)NCc2ccc3c(c2)CCCC3)cc1OC [(I-25), N-((5,6,7,8-tetrahydronaphthalene-2-yl)methyl)-3-(3-methoxy-4-(2-propynyloxy)phenyl)propanamide] | 100% |
| C#CCOc1ccc(CCC(=S)NCc2ccc3ccccc3c2)cc1OC [(I-29), N-{(naphthalene-2-yl)methyl}-3-{3-methoxy-4-(2-propynyloxy)phenyl)propanthioamide] | 100% |
| C#CCOc1ccc(CCC(=O)NCc2ccc(CC)cc2)cc1OC [(I-8), N-(4-ethylbenzyl)-3-{3-methoxy-4-(2-propynyloxy)phenyl}prop anamide] | 100% |
| CCOc1ccc(CCC(=O)NC(C#N)c2ccc(C)cc2)cc1OC (stereo not drawn) [(I-7), N-{1-(4-methylphenyl)-1-cyanomethyl}-3-(3-methoxy-4-ethoxyphenyl)propanamide] | 100% |
| C#CCOc1ccc(CCC(=O)NC(C#N)c2ccc(Cl)cc2)cc1OC (stereo not drawn) [(I-16), N-{1-(4-chlorophenyl)-1-cyanomethyl}-3-{3-methoxy-4-(2-propynyloxy)phenyl}propanamide] | 100% |
| C#CCOc1ccc(CCC(=O)NCc2ccc(Cl)c(Cl)c2)cc1OC [(I-11), N-(3,4-dichlorobenzyl)-3-{3-methoxy-4-(2-propynyloxy)phenyl}propanamide] | 100% |
| C#CCOc1ccc(CCC(=S)NCc2ccc3c(c2)CCC3)cc1OC [(I-23), N-(indan-5-ylmethyl)-3-(3-methoxy-4-(2-propynyloxy)phenyl)p ropanthioamide] | 100% |
| C#CCOc1ccc(CCC(=O)NC(C#N)c2ccc(Br)cc2)cc1OC (stereo not drawn) [(I-20), N-{1-(4-bromophenyl)-1-cyanomethyl}-3-(3-methoxy-4-(2-propynyloxy)phenyl}propanamide] | 100% |

same assay, conditions: single active ingredient, 50 ppm, wettable powder sprayed on grape seedlings before inoculation, assessed after one night plus 7 days

| SMILES | Actual protective value |
| --- | --- |
| C#CCOc1ccc(CCC(=O)NCc2ccc(Cl)cc2)cc1OCC [(I-12), N-(4-chlorobenzyl)-3-{3-ethoxy-4-(2-propionyloxy)phenyl}pro panamide] | 100% |
| C#CCOc1ccc(CCC(=O)NCc2ccc(C)c(C)c2)cc1OC [(I-2)] | 100% |
| CCOc1ccc(CCC(=O)NC(C#N)c2ccc(Br)cc2)cc1OC (stereo not drawn) [(I-21)] | 100% |
| C#CCOc1ccc(CCC(=O)NCc2ccc(Br)cc2)cc1OC [(I-18)] | 100% |
| C#CCOc1ccc(CCC(=O)NC(C#N)c2ccc3c(c2)CCCC3)cc1OC (stereo not drawn) [(I-27), N-{1-(5,6,7,8-tetrahydronaphthalene-2-yl)-1-cyanomethyl}-3-(3-methoxy-4-(2-propyonyloxy)phenyl)propanamide] | 100% |
